Experimental data published in US11111242B2, “Pyrrolo[2,3-d]pyrimidinyl, pyrrolo[2,3-b]pyrazinyl and pyrrolo[2,3-d]pyridinyl acrylamides” (Pfizer Inc., priority 2013, dated 2021).

test system: IL-15 induced P-STAT5 in human PBMC (total lymphocytes); test: PBMC IL-15 Induced P-STAT5; type: cell-based; conditions: Homo sapiens, PBMC, IL-15 stimulated, read-out: PBMC IL15-pSTAT5 IC50
Protocol: PBMC IL-15 Induced P-STAT5
Frozen human PBMC (200-250 million cells/vial) was thawed at 37° C. The cells were transferred to 10 mL warm medium in a 50-mL conical tube, and centrifuged at 1,200 RPM at room temperature for 5 min. The supernatant was aspirated. […] After adding 47 ml D-PBS (37° C.) to PBMC/FBS suspension, centrifuging at 1,200 RPM at room temperature for 5 min, and aspirating the supernatant, the cells were resuspended in 20 mL warm RPMI medium. Ninety μL of cell suspension were pipetted per well in a 96-well, deep-well, V-bottom plate, and the plate was incubated at 37° C. for 30 min. […] After adding 0.8 mL staining buffer per well, the plates were centrifuged at 1,200 RPM (Beckman GS-6R or Sorvall Legend) at room temperature for 5 min, and again the supernatant was aspirated using a 8-channel or 12-channel manifold. The plate was vortexed, and 0.35 mL 90% methanol/10% H2O (−20° C.) was added per well, and the plate incubated on ice for 20 min. After again adding 0.8 mL staining buffer per well, the plates were centrifuged at 1,200 RPM (Beckman GS-6R or Sorvall Legend) at room temperature for 5 min, and again the supernatant was aspirated using a 8-channel or 12-channel manifold, and then 0.8 mL Staining buffer was added per well. After once again adding 0.8 mL staining buffer per well, the plates were centrifuged at 1,200 RPM (Beckman GS-6R or Sorvall Legend) at room temperature for 5 min, and again the supernatant was aspirated using a 8-channel or 12-channel manifold. […] Samples of 250 μL/well were transferred to a 96-well U-bottom plate, and the FACS analysis was performed gating on total lymphocytes. Samples were analyzed using a BD Calibur™ or BD FACSCanto™ flow cytometer equipped with the BD High Throughput Sampler.

| SMILES | IC50 |
| --- | --- |
| C=CC(=O)N1CCC(Oc2cnc3[nH]cc(-c4ccnc(C)c4)c3n2)CC1 [Example 220, 1-(4-{[7-(2-methylpyridin-4-yl)-5H-pyrrolo[2,3-b]pyrazin-2-yl]oxy}piperidin-1-yl)prop-2-en-1-one] | 464 nM |
| C=CC(=O)N1CCC(Nc2cnc3[nH]cc(C(=O)NC4CCCC4(F)F)c3n2)CC1 (stereo not shown) [Example 234, 2-[(1-acryloylpiperidin-4-yl)amino]-N-(2,2-difluorocyclopentyl)-5H-pyrrolo[2,3-b]pyrazine-7-carboxamide] | 65.2 nM |

same assay, conditions: IL-15 stimulated, read-out: PBMC IL15-pSTAT5 IC50

| SMILES | IC50 |
| --- | --- |
| C=CC(=O)N1CCC(Nc2cnc3[nH]cc(-c4cccc(C(=O)NC)c4)c3n2)CC1 [Example 204, 3-{2-[(1-acryloylpiperidin-4-yl)amino]-5H-pyrrolo[2,3-b]pyrazin-7-yl}-N-methylbenzamide] | 855 nM |
| C=CC(=O)N1CCC(Nc2cnc3[nH]cc(-c4cncc(C#N)c4)c3n2)CC1 [Example 206, 5-{2-[(1-acryloylpiperidin-4-yl)amino]-5H-pyrrolo[2,3-b]pyrazin-7-yl}pyridine-3-carbonitrile] | 163 nM |
| C=CC(=O)N1CCC(Oc2cnc3[nH]cc(-c4cncc(F)c4)c3n2)CC1 [Example 213, 1-(4-{[7-(5-fluoropyridin-3-yl)-5H-pyrrolo[2,3-b]pyrazin-2-yl]oxy}piperidin-1-yl)prop-2-en-1-one] | 318 nM |
| C=CC(=O)N1CCC(Oc2cnc3[nH]cc(-c4ccc(C)nc4)c3n2)CC1 [Example 214, 1-(4-{[7-(6-methylpyridin-3-yl)-5H-pyrrolo[2,3-b]pyrazin-2-yl]oxy}piperidin-1-yl)prop-2-en-1-one] | 1110 nM |
| C=CC(=O)N1CCC(Oc2cnc3[nH]cc(-c4cncnc4)c3n2)CC1 [Example 215, 1-(4-{[7-(pyrimidin-5-yl)-5H-pyrrolo[2,3-b]pyrazin-2-yl]oxy}piperidin-1-yl)prop-2-en-1-one] | 1260 nM |
| C=CC(=O)N1CCC(Oc2cnc3[nH]cc(-c4cccnc4F)c3n2)CC1 [Example 217, 1-(4-{[7-(2-fluoropyridin-3-yl)-5H-pyrrolo[2,3-b]pyrazin-2-yl]oxy}piperidin-1-yl)prop-2-en-1-one] | 129 nM |
| C=CC(=O)N1CCC(Oc2cnc3[nH]cc(-c4cnc(OC)nc4)c3n2)CC1 [Example 219, 1-(4-{[7-(2-methoxypyrimidin-5-yl)-5H-pyrrolo[2,3-b]pyrazin-2-yl]oxy}piperidin-1-yl)prop-2-en-1-one] | 987 nM |
| C=CC(=O)N1CCC(Oc2cnc3[nH]cc(-c4ccnc(F)c4)c3n2)CC1 [Example 222, 1-(4-{[7-(2-fluoropyridin-4-yl)-5H-pyrrolo[2,3-b]pyrazin-2-yl]oxy}piperidin-1-yl)prop-2-en-1-one] | 757 nM |
| C=CC(=O)N1CCC(Oc2cnc3[nH]cc(-c4cncc(C#N)c4)c3n2)CC1 [Example 225, 5-{2-[(1-acryloylpiperidin-4-yl)oxy]-5H-pyrrolo[2,3-b]pyrazin-7-yl}pyridine-3-carbonitrile] | 2910 nM |
| C=CC(=O)N1CCC(Oc2cnc3[nH]cc(-c4ccc(F)nc4)c3n2)CC1 [Example 226, 1-(4-{[7-(6-fluoropyridin-3-yl)-5H-pyrrolo[2,3-b]pyrazin-2-yl]oxy}piperidin-1-yl)prop-2-en-1-one] | 699 nM |
| C=CC(=O)N1CCC(Oc2cnc3[nH]cc(-c4cccc(C(=O)NC)c4)c3n2)CC1 [Example 227, 3-{2-[(1-acryloylpiperidin-4-yl)oxy]-5H-pyrrolo[2,3-b]pyrazin-7-yl}-N-methylbenzamide] | 643 nM |
| C=CC(=O)N1CCC(Nc2cnc3[nH]cc(C(=O)NCC4(O)CCC4)c3n2)CC1 [Example 231, 2-[(1-acryloylpiperidin-4-yl)amino]-N-[(1-hydroxycyclobutyl)methyl]-5H-pyrrolo[2,3-b]pyrazine-7-carboxamide] | 3620 nM |
| C=CC(=O)N1CCC(Nc2cnc3[nH]cc(C(=O)NCC4(O)CCCC4)c3n2)CC1 [Example 232, 2-[(1-acryloylpiperidin-4-yl)amino]-N-[(1-hydroxycyclopentyl)methyl]-5H-pyrrolo[2,3-b]pyrazine-7-carboxamide] | 1640 nM |
| C=CC(=O)N1CCC(Nc2cnc3[nH]cc(C(=O)NCC4(O)CCC(C)C4)c3n2)CC1 (stereo not shown) [Example 235, 2-[(1-acryloylpiperidin-4-yl)amino]-N-[(1-hydroxy-3-methylcyclopentyl)methyl]-5H-pyrrolo[2,3-b]pyrazine-7-carboxamide] | 1700 nM |
| C=CC(=O)N1CCC(Nc2cnc3[nH]cc(C(=O)N[C@@H]4CCC[C@H]4F)c3n2)CC1 [Example 237, 2-[(1-acryloylpiperidin-4-yl)amino]-N-[(1R,2R)-2-fluorocyclopentyl]-5H-pyrrolo[2,3-b]pyrazine-7-carboxamide] | 80.1 nM |
| C=CC(=O)N1CCC(Nc2cnc3[nH]cc(C(=O)NCC4(O)CC[C@@H](C)C4)c3n2)CC1 (stereo partly drawn) [Example 239, 2-[(1-acryloylpiperidin-4-yl)amino]-N-{[(3R)-1-hydroxy-3-methylcyclopentyl]methyl}-5H-pyrrolo[2,3-b]pyrazine-7-carboxamide] | 1900 nM |
| C=CC(=O)N1CCC(Nc2cnc3[nH]cc(C(=O)NCCCC#N)c3n2)CC1 [Example 242, 2-[(1-acryloylpiperidin-4-yl)amino]-N-(3-cyanopropyl)-5H-pyrrolo[2,3-b]pyrazine-7-carboxamide] | 1100 nM |
| C=CC(=O)N1CCC(Nc2cnc3[nH]cc(C(=O)N[C@H](C(C)C)[C@@H](O)C(F)(F)F)c3n2)CC1 [Example 248, 2-[(1-acryloylpiperidin-4-yl)amino]-N-[(2R,3R)-1,1,1-trifluoro-2-hydroxy-4-methylpentan-3-yl]-5H-pyrrolo[2,3-b]pyrazine-7-carboxamide] | 893 nM |
| C=CC(=O)N1CCC(Nc2cnc3[nH]cc(C(=O)NCC4(O)CCCC(F)(F)C4)c3n2)CC1 (stereo not shown) [Example 249, 2-[(1-acryloylpiperidin-4-yl)amino]-N-[(3,3-difluoro-1-hydroxycyclohexyl)methyl]-5H-pyrrolo[2,3-b]pyrazine-7-carboxamide] | 2110 nM |
| C=CC(=O)N1CCC(Nc2cnc3[nH]cc(C(=O)NCC4(O)CCCC[C@H]4F)c3n2)CC1 (stereo partly drawn) [Example 250, 2-[(1-acryloylpiperidin-4-yl)amino]-N-{[(2R)-2-fluoro-1-hydroxycyclohexyl]methyl}-5H-pyrrolo[2,3-b]pyrazine-7-carboxamide] | 4120 nM |
| C=CC(=O)N1CCC(Nc2cnc3[nH]cc(C(=O)NC(CC)C4(O)CCC4)c3n2)CC1 (stereo not shown) [Example 251b, 2-[(1-acryloylpiperidin-4-yl)amino]-N-[1-(1-hydroxycyclobutyl)propyl]-5H-pyrrolo[2,3-b]pyrazine-7-carboxamide] | 1510 nM |
| C=CC(=O)N1CCC(Nc2cnc3[nH]cc(C(=O)N[C@@H](C(C)C)[C@H](O)C(F)(F)F)c3n2)CC1 [Example 252, 2-[(1-acryloylpiperidin-4-yl)amino]-N-[(2S,3S)-1,1,1-trifluoro-2-hydroxy-4-methylpentan-3-yl]-5H-pyrrolo[2,3-b]pyrazine-7-carboxamide] | 673 nM |
| C=CC(=O)N1CCC(Nc2cnc3[nH]cc(C(=O)NCC4(O)CCC(F)(F)CC4)c3n2)CC1 [Example 252b, 2-[(1-acryloylpiperidin-4-yl)amino]-N-[(4,4-difluoro-1-hydroxycyclohexyl)methyl]-5H-pyrrolo[2,3-b]pyrazine-7-carboxamide] | 2470 nM |
| C=CC(=O)N1CCC(Nc2cnc3[nH]cc(C(=O)NCC4(O)CCCC[C@@H]4F)c3n2)CC1 (stereo partly drawn) [Example 254, 2-[(1-acryloylpiperidin-4-yl)amino]-N-{[(2S)-2-fluoro-1-hydroxycyclohexyl]methyl}-5H-pyrrolo[2,3-b]pyrazine-7-carboxamide] | 836 nM |
| C=CC(=O)N1CCC(Nc2cnc3[nH]cc(C(=O)NCCCCCCCCC#N)c3n2)CC1 [Example 260, 2-[(1-acryloylpiperidin-4-yl)amino]-N-(8-cyanooctyl)-5H-pyrrolo[2,3-b]pyrazine-7-carboxamide] | 575 nM |
| C=CC(=O)N1CCC(Nc2cnc3[nH]cc(C(=O)N[C@H]4CCC[C@H](CC#N)C4)c3n2)CC1 [Example 262, 2-[(1-acryloylpiperidin-4-yl)amino]-N-[(1S,3S)-3-(cyanomethyl)cyclohexyl]-5H-pyrrolo[2,3-b]pyrazine-7-carboxamide] | 1330 nM |
| C=CC(=O)N1CCC(Nc2cnc3[nH]cc(C(=O)N4CCC4)c3n2)CC1 [Example 284, 1-(4-{[7-(azetidin-1-ylcarbonyl)-5H-pyrrolo[2,3-b]pyrazin-2-yl]amino}piperidin-1-yl)prop-2-en-1-one] | 2790 nM |
| C=CC(=O)N1CCC(Nc2cnc3[nH]cc(C(=O)N4CCCC4)c3n2)CC1 [Example 287, 1-(4-{[7-(pyrrolidin-1-ylcarbonyl)-5H-pyrrolo[2,3-b]pyrazin-2-yl]amino}piperidin-1-yl)prop-2-en-1-one] | 7370 nM |
| C=CC(=O)N1CC[C@@H](Nc2cnc3[nH]cc(C(=O)NC(C)C)c3n2)[C@H](F)C1 [Example 291, 2-{[(3R,4R)-1-acryloyl-3-fluoropiperidin-4-yl]amino}-N-(propan-2-yl)-5H-pyrrolo[2,3-b]pyrazine-7-carboxamide] | 168 nM |
